In the oligonucleotide strings, read from the 5' end, every base follows the letter of its sugar. An asterisk marks phosphorothioate; unmarked linkages are phosphodiester. Other units and linkages are bracketed, terminal groups are in braces. A string of capitals states the bases alone. d = 2'-deoxy (DNA)
Assays:
Influenza A/HK/68 (H3N2) = system: Influenza A/HK/68 (H3N2); parameters: species or system Balb/c mice; details: mouse, in vivo, ip, 180 mg/kg
HIV-1 (strain Mn) lysate = experiment: Fluorescence polarization binding to HIV-1 lysate; details: FITC-labelled ON
RSV (strain A2) lysate = experiment: Fluorescence polarization binding to RSV lysate; details: FITC-labelled ON
[1] = system: HSV-1 (strain MacIntyre) lysate; experiment: Fluorescence polarization binding to HSV-1 lysate; details: FITC-labelled ON
HSV-1 (strain KOS) = experiment: HSV-1 plaque reduction assay (PRA) in VERO cells; format: cell-based; details: for IC50: VERO cells, HSV-1 strain KOS, linear regressions, read-out: IC50 (anti-HSV-1)
Description: The ability of PS-ONs to inhibit HSV-1 is measured in a plaque reduction assay (PRA). […] Upon reaching confluency, the media is changed to contain only 5% serum plus supplements as described above and cells are then exposed to HSV-1 (strain KOS, approximately 40-60 PFU total) in the presence of the test compound for 90 minutes. After viral exposure, the media is replaced with new “overlay” media containing 5% serum, 1% human immunoglobulins, supplements as described above and the test compound. Plaque counting is performed 3-4 days post infection following formalin fixation and cresyl violet staining of infected cultures.
(§1) Viral adsorbtion proceeds for 90 minutes, after which cells are washed and replaced with new “overlay” media containing 5% fetal calf serum and 1% human immunoglobins. Three to four days after adsorbtion, cells are fixed by formalin and plaques are counted following formalin fixation and cresyl violet staining.
Upon reaching confluency, the media is changed to contain only 5% serum plus supplements as described above and cells are then exposed to HSV-1 (strain KOS, approximately 40-60 PFU total) in the presence of the test compound for 90 minutes. After viral exposure, the media is replaced with new “overlay” media containing 5% serum, 1% human immunoglobulins, supplements as described above and the test compound. Plaque counting is performed 3-4 days post infection following formalin fixation and cresyl violet staining of infected cultures.

HSV-2 (strain MS2) = experiment: HSV-2 plaque reduction assay (PRA); format: cell-based
Description: The ability of PS-ONs to inhibit HSV-2 is measured by PRA. […] Upon reaching confluency, the media is changed to contain only 5% serum plus supplements as described above and cells are then exposed to HSV-2 (strain MS2, approximately 40-60 PFU total) in the presence of the test compound for 90 minutes. After viral exposure, the media is replaced with new “overlay” media containing 5% serum, 1% human immunoglobulins, supplements as described above and the test compound. Plaque counting is performed 3-4 days post infection following formalin fixation and cresyl violet staining of infected cultures.
as §1

Exonuclease I = Exonuclease I (Escherichia coli, UniProt P04995); parameters: key to the marks not given beside the values; details: after 4 h at 37° C.
[2] = parameters: Acid stability, pH 5 / Acid stability, pH 7: key to the marks not given beside the values
Phosphodiesterase II = details: after 4 h at 37° C.
S1 Nuclease = S1 Nuclease (Aspergillus oryzae, UniProt P24021); details: after 4 h at 37° C.
Chain of S1 Nuclease (P24021 21-287): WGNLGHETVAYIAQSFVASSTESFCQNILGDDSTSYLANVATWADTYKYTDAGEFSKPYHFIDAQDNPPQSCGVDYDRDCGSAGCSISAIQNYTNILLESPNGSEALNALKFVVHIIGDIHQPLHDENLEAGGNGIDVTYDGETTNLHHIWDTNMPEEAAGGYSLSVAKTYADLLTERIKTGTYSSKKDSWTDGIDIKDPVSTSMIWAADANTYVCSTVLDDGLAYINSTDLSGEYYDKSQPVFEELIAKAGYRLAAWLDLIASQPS

Chain of Exonuclease I (P04995 whole entry): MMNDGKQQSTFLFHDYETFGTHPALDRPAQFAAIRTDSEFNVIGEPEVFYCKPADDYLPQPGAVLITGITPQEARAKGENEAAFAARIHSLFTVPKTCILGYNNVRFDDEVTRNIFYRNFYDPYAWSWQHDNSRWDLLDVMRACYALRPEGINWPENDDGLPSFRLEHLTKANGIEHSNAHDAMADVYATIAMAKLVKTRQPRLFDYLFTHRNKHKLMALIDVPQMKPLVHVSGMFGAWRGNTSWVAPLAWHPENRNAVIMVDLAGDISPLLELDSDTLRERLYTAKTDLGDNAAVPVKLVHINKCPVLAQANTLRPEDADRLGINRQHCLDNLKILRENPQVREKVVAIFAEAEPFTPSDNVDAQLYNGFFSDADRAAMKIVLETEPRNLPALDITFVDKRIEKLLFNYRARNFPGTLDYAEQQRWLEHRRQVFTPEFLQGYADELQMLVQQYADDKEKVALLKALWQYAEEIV

| Compound | binding to HIV-1 lysate (fluorescence polarization, mP) (HIV-1 (strain Mn) lysate) | binding to RSV lysate (fluorescence polarization, mP) (RSV (strain A2) lysate) | binding to HSV-1 lysate (fluorescence polarization, mP) [1] | IC50 (HSV-1 (strain KOS)) | anti-HSV-2 activity (HSV-2 (strain MS2)) | further results |
| --- | --- | --- | --- | --- | --- | --- |
| NC(=O)c1ncn([C@@H]2O[C@H](CO)[C@@H](O)[C@H]2O)n1 [Ribavirin] |  |  |  |  |  | Viral titer (log10/g lung) Mean (Influenza A/HK/68 (H3N2)): 3.3 log10/g lung |
| A20: 20-mer PS-ON, polyA, 3′ FITC labelled in the binding test | the weakest interactor of these by a significant margin | the weakest interactor of these by a significant margin | the weakest interactor of these by a significant margin |  |  |  |
| REP 1001: PS-ON directed against a replication origin in humans (343 ARS) (DNA dT*dT*dG*dA*dT*dA*dA*dA*dT*dA*dG*dT*dA*dC*dT*dA*dG*dG*dA*dC) |  |  |  | 2.76 µM | showed anti-HSV-2 activity |  |
| REP 2001: PS-ON directed against the origin of replication in HSV (DNA dG*dA*dA*dG*dC*dG*dT*dT*dC*dG*dC*dA*dC*dT*dT*dC*dG*dT*dC*dC*dC*dA) |  |  |  | 0.77 µM | showed anti-HSV-2 activity |  |
| REP 2017: random sequence 20-mer PS-ON (DNA dA*dC*dA*dC*dC*dT*dC*dC*dG*dA*dA*dG*dA*dC*dG*dA*dT*dA*dA*dC) | capable of HSV-1 and HIV-1 interaction |  | capable of HSV-1 and HIV-1 interaction |  |  |  |
| REP 2029: A40 (polyA) PS-ON (DNA dA*dA*dA*dA*dA*dA*dA*dA*dA*dA*dA*dA*dA*dA*dA*dA*dA*dA*dA*dA*dA*dA*dA*dA*dA*dA*dA*dA*dA*dA*dA*dA*dA*dA*dA*dA*dA*dA*dA*dA) |  |  |  |  |  | relative anti-HSV-1 efficacy by sequence composition (HSV-1 (strain KOS); PS-ONs of equivalent size, HSV-1 PRA): the least active; Nuclease resistance, Exo 1 (Exonuclease I): ++++; Acid stability, pH 1 ([2]; pH 1, 24 h at 37° C.): −; Acid stability, pH 2 ([2]; pH 2, 24 h at 37° C.): −; Acid stability, pH 2.5 ([2]; pH 2.5, 24 h at 37° C.): −; Acid stability, pH 3 ([2]; pH 3, 24 h at 37° C.): −; Acid stability, pH 4 ([2]; pH 4, 24 h at 37° C.): ++ (++ = less than 5-% degradation); Acid stability, pH 5 ([2]; pH 5, 24 h at 37° C.): +++; Acid stability, pH 7 ([2]; pH 7, 24 h at 37° C.): +++; Nuclease resistance, PII (Phosphodiesterase II): −; Nuclease resistance, S1 (S1 Nuclease): − |
| REP 3007: PS-ON directed against a plasmid (pBR322/pUC) replication origin (DNA dC*dT*dT*dG*dC*dG*dG*dT*dA*dT*dT*dC*dG*dG*dA*dA) |  |  |  | 5.33 µM | showed anti-HSV-2 activity |  |
| T20: 20-mer PS-ON, polyT | the weakest interactors | the weakest interactors | the weakest interactors |  |  |  |
| TG10: 20-mer PS-ON, TG repeat | the strongest interaction | the strongest interaction | the strongest interaction |  |  |  |
